Data from patent publication US9949938B2, “CoQ10 (ubiquinone, ubiquinol), vitamin A (retinoid acid, retinol), vitamin E (tocotrienol, tocopherol) and methods of use” (AMERICAN RIVER NUTRITION, priority 2013, dated 2018).

Experiments:
[1] = gastric conditions, pH<2, 30 minutes; cited from earlier work
[2] = CoQ10 with and without tocotrienol in hydrochloric acid (pH<2), 30 minutes, simulated gastric conditions; type: physicochemical; conditions: in the presence of tocotrienol versus without; HCl pH<2, 30 minutes
Description: 100 mg CoQ10 (ubiquinone or ubiquinol), with and without tocotrienol, was placed in a beaker with acid (hydrochloric acid) (pH<2) for 30 minutes to simulate gastric conditions.

## COc1c(O)c(C)c(C/C=C(\C)CC/C=C(\C)CC/C=C(\C)CC/C=C(\C)CC/C=C(\C)CC/C=C(\C)CC/C=C(\C)CC/C=C(\C)CC/C=C(\C)CCC=C(C)C)c(O)c1OC [ubiquinol]
[1]
  ubiquinol converted to ubiquinone: about 50%

## COC1=C(OC)C(=O)C(C/C=C(\C)CC/C=C(\C)CC/C=C(\C)CC/C=C(\C)CC/C=C(\C)CC/C=C(\C)CC/C=C(\C)CC/C=C(\C)CC/C=C(\C)CCC=C(C)C)=C(C)C1=O [CoQ10, 2,3-dimethoxy-5-methyl-6-decaprenil-1,4-benzoquinone]
[2]
  CoQ10 content (both ubiquinone or ubiquinol) after acid: higher content
